Assay results as given in ChEMBL document CHEMBL4673200, “Hydride-induced Meisenheimer complex formation reflects activity of nitro aromatic anti-tuberculosis compounds” (RSC Med Chem, 2021).
pIC50: −log10 of the molar value. In brackets after ≈: the same amount, converted by molar mass. Activity calls are given as the source filed them. The rule behind the calls is not given here.

Experiments:
[1] = system: Mycobacterium tuberculosis; experiment: Antitubercular activity against Mycobacterium tuberculosis H37Rv ATCC 27294 cultured in GAS media assessed as reduction in bacterial growth incubated for 7 days by resazurin dye fluorescence based assay; assay type: functional; settings: H37Rv ATCC 27294, 168 h, time 7 day
[2] = system: Mycobacterium tuberculosis; experiment: Antitubercular activity against Mycobacterium tuberculosis H37Rv ATCC 27294 cultured in 7H12 media assessed as reduction in bacterial growth incubated for 7 days by resazurin dye fluorescence based assay; assay type: functional; settings: H37Rv ATCC 27294, 168 h, time 7 day
[3] = system: Vero; experiment: Cytotoxicity against African green monkey Vero cells assessed by reduction in cell viability incubated for 72 hrs by resazurin dye fluorescence based assay; settings: Chlorocebus sabaeus
[4] = target: T1, Decaprenylphosphoryl-beta-D-ribose oxidase (Mycobacterium tuberculosis (strain ATCC 25618 / H37Rv)) (UniProt P9WJF1); experiment: Inhibition of Mycobacterium tuberculosis H37Rv DprE1 at 100 times of MIC incubated for 24 hrs by [14C]-acetate radioligand based thin layer chromatography
T1 sequence (whole entry): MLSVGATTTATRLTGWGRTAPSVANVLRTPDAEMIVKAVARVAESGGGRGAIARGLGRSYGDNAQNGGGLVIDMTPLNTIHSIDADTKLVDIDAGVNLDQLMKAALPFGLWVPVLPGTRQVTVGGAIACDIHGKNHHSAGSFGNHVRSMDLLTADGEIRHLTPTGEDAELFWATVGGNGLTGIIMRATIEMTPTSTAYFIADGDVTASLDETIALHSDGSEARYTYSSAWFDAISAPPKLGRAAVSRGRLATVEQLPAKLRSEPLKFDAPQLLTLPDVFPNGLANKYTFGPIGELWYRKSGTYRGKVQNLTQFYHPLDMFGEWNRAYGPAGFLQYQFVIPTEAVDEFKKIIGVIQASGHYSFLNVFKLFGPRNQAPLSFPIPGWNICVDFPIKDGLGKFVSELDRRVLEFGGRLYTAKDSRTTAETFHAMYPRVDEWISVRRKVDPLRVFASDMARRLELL

[5] = system: Mycolicibacterium vaccae; experiment: Antitubercular activity against Mycobacterium vaccae assessed as reduction in bacterial growth incubated for 42 hrs by broth microdilution assay; assay type: functional
[6] = system: Mycolicibacterium aurum; experiment: Antitubercular activity against Mycobacterium aurum assessed as reduction in bacterial growth incubated for 42 hrs by broth microdilution assay; assay type: functional
[7] = target: T1, Decaprenylphosphoryl-beta-D-ribose oxidase (Mycobacterium tuberculosis (strain ATCC 25618 / H37Rv)); experiment: Inhibition of reactivation of Mycobacterium tuberculosis H37Rv DprE1 at 100 times of MIC incubated for 24 hrs by [14C]-acetate radioligand based thin layer chromatography

Structure (SMILES) | MIC [1] [µM] | MIC [2] [µM] | pIC50 [3] | inhibition [4] | MIC [5] [µM] | MIC [6] [µM] | inhibition [7]
N#Cc1cc([N+](=O)[O-])ccc1N1CCN(c2ccc(C(F)(F)F)cc2)CC1 | 5 (≈ 1.88 µg/mL) | > 5 | < 4.00 |  |  |  | 
O=[N+]([O-])c1cn2c(n1)OC[C@@H](OCc1ccc(OC(F)(F)F)cc1)C2 [PRETOMANID] | 0.2 (≈ 0.0719 µg/mL) | 0.08 (≈ 0.0287 µg/mL) | < 4.00 |  |  |  | 
C[C@H]1COC2(CCN(C(=O)c3sc4c([N+](=O)[O-])cc(C(F)(F)F)cc4[n+]3[O-])CC2)O1 | 0.24 (≈ 0.107 µg/mL) | 0.23 (≈ 0.103 µg/mL) | 4.10 | Active | 0.015 (≈ 0.00671 µg/mL) | > 1 | 
N#Cc1cc([N+](=O)[O-])ccc1NC1CC1 | > 5 | > 5 | < 4.00 |  |  |  | 
C[C@H]1COC2(CCN(c3nc(=O)c4cc(C(F)(F)F)cc([N+](=O)[O-])c4s3)CC2)O1 [BTZ-043] | < 0.004 | < 0.004 | < 4.00 | Active | < 0.001 | > 1 | 
C[C@H]1COC2(CCN(c3ccc([N+](=O)[O-])cc3C#N)CC2)O1 | 2 (≈ 0.607 µg/mL) | 2.4 (≈ 0.728 µg/mL) | < 4.00 |  |  |  | 
CCc1nc2ccc(Cl)cn2c1C(=O)NCc1ccc(N2CCC(c3ccc(OC(F)(F)F)cc3)CC2)cc1 [TELACEBEC] | 0.007 (≈ 0.0039 µg/mL) | 0.03 (≈ 0.0167 µg/mL) | < 4.00 |  | 0.004 (≈ 0.00223 µg/mL) | > 1 | 
NC(=O)c1sc2c([N+](=O)[O-])cc(C(F)(F)F)cc2[n+]1[O-] [CYCLAPOLIN 9] | 2.19 (≈ 0.673 µg/mL) | 1.2 (≈ 0.369 µg/mL) |  |  |  |  | 
N#Cc1cc([N+](=O)[O-])ccc1NCc1ccccn1 | > 5 | > 5 | < 4.00 |  |  |  | 
N#Cc1cc([N+](=O)[O-])ccc1-n1cnc2c(N)ncnc21 | > 5 | > 5 | < 4.00 |  |  |  | 
CC(C)(C)OC(=O)N1CCC(Oc2ccc(Nc3ccc([N+](=O)[O-])cc3C#N)cc2)CC1 | 3 (≈ 1.32 µg/mL) | > 5 | < 4.00 |  |  |  | 
N#Cc1cc([N+](=O)[O-])ccc1NCc1cccc(F)c1 | 5 (≈ 1.36 µg/mL) | > 5 | < 4.00 |  |  |  | 
N#Cc1cc([N+](=O)[O-])ccc1Nc1ccc(OC2CCNCC2)cc1 | > 5 | > 5 | < 4.00 |  |  |  | 
COc1ccc(CNC(=O)c2sc3c([N+](=O)[O-])cc(C(F)(F)F)cc3[n+]2[O-])cc1 | 0.01 (≈ 0.00427 µg/mL) | 0.01 (≈ 0.00427 µg/mL) | 4.12 |  | < 0.001 | > 1 | 
N#Cc1cc([N+](=O)[O-])ccc1Oc1ccc(Cl)c(Cl)c1 | 45 (≈ 13.9 µg/mL) | > 50 | < 4.30 |  |  |  | 
O=C(NCc1ccc2c(c1)CCO2)c1sc2c([N+](=O)[O-])cc(C(F)(F)F)cc2[n+]1[O-] | < 0.002 | 0.01 (≈ 0.00439 µg/mL) | < 4.00 |  | < 0.001 | > 1 | 
CC(Nc1ccc([N+](=O)[O-])cc1C#N)c1ccc(Cl)cc1 (stereo not given) | 5 (≈ 1.51 µg/mL) | > 5 | 4.54 |  |  |  | 
COc1ccc(CNc2ccc([N+](=O)[O-])cc2C#N)cc1 | > 5 | > 5 | < 4.00 |  |  |  | 
COc1ccc(CNC(=O)c2nc3cc(C(F)(F)F)cc([N+](=O)[O-])c3s2)cc1 | 0.14 (≈ 0.0576 µg/mL) | 0.7 (≈ 0.288 µg/mL) | < 4.00 | Active | 0.008 (≈ 0.00329 µg/mL) | > 1 | inactive
O=c1nc(N2CCN(CC3CCCCC3)CC2)sc2c([N+](=O)[O-])cc(C(F)(F)F)cc12 |  |  |  | Active |  |  | 
CCOC(=O)c1sc2c([N+](=O)[O-])cc(C(F)(F)F)cc2[n+]1[O-] | 4.97 (≈ 1.67 µg/mL) | > 5 |  |  |  |  | 
N#Cc1cc([N+](=O)[O-])ccc1N1CCC(Cc2ccccc2)CC1 | 2 (≈ 0.643 µg/mL) | > 5 | < 4.00 |  |  |  | 
O=C(NCc1ccc(N2CCC(c3ccc(OC(F)(F)F)cc3)CC2)cc1)c1nc2cc(C(F)(F)F)cc([N+](=O)[O-])c2s1 | 0.13 (≈ 0.0812 µg/mL) | 0.24 (≈ 0.15 µg/mL) | < 4.00 | Active | 0.125 (≈ 0.0781 µg/mL) | > 1 | inactive
O=C(NCc1ccc(N2CCC(c3ccc(OC(F)(F)F)cc3)CC2)cc1)c1sc2c([N+](=O)[O-])cc(C(F)(F)F)cc2[n+]1[O-] | 0.07 (≈ 0.0448 µg/mL) | 0.025 (≈ 0.016 µg/mL) | 4.09 |  | 0.02 (≈ 0.0128 µg/mL) | > 1 | 
